Data from BigSolDB 2.1.

c1ccc(OP2(Oc3ccccc3)=NP(Oc3ccccc3)(Oc3ccccc3)=NP(Oc3ccccc3)(Oc3ccccc3)=N2)cc1
Details	solubility (mole fraction)
in 2-ethoxyethanol, 298.15 K	0.0065
in 2-ethoxyethanol, 300.95 K	0.0074
in 2-ethoxyethanol, 303.25 K	0.0081
in 2-ethoxyethanol, 310.15 K	0.0106
in 2-ethoxyethanol, 314.55 K	0.0126
in 2-ethoxyethanol, 318.75 K	0.0148
in 2-ethoxyethanol, 323.65 K	0.0182
in 2-ethoxyethanol, 328.05 K	0.0212
in 2-ethoxyethanol, 333.15 K	0.0259
in 2-ethoxyethanol, 343.25 K	0.0352
in 2-ethoxyethanol, 348.35 K	0.042
in 2-ethoxyethanol, 353.15 K	0.0478
in THF, 293.25 K	0.151
in THF, 298.15 K	0.175
in THF, 304.35 K	0.2
in THF, 308.25 K	0.223
in THF, 314.25 K	0.253
in THF, 318.45 K	0.285
in THF, 323.15 K	0.315
in THF, 328.25 K	0.346
in acetone, 293.15 K	0.0295
in acetone, 296.45 K	0.0349
in acetone, 300.25 K	0.0423
in acetone, 304.35 K	0.0496
in acetone, 308.25 K	0.0588
in acetone, 314.25 K	0.0782
in acetone, 318.35 K	0.093
in acetone, 323.15 K	0.117
in acetonitrile, 298.25 K	0.004
in acetonitrile, 303.55 K	0.006
in acetonitrile, 308.25 K	0.0082
in acetonitrile, 313.35 K	0.0122
in acetonitrile, 318.35 K	0.017
in acetonitrile, 323.45 K	0.0243
in acetonitrile, 328.15 K	0.0332
in acetonitrile, 333.25 K	0.0457
in dichloromethane, 293.35 K	0.099
in dichloromethane, 295.95 K	0.111
in dichloromethane, 300.35 K	0.139
in dichloromethane, 303.15 K	0.158
in dichloromethane, 306.05 K	0.179
in dichloromethane, 310.35 K	0.219
in diethyl ether, 293.15 K	0.0101
in diethyl ether, 296.25 K	0.0122
in diethyl ether, 299.05 K	0.014
in diethyl ether, 300.35 K	0.0154
in diethyl ether, 303.15 K	0.0178
in diethyl ether, 306.05 K	0.0211
in ethanol, 298.25 K	0.0096
in ethanol, 300.95 K	0.0099
in ethanol, 303.25 K	0.0102
in ethanol, 308.15 K	0.011
in ethanol, 313.45 K	0.0119
in ethanol, 318.75 K	0.0129
in ethanol, 323.05 K	0.0136
in ethanol, 328.35 K	0.0147
in ethyl acetate, 298.15 K	0.0592
in ethyl acetate, 300.95 K	0.0655
in ethyl acetate, 303.25 K	0.0699
in ethyl acetate, 308.25 K	0.0829
in ethyl acetate, 313.25 K	0.0983
in ethyl acetate, 319.05 K	0.119
in ethyl acetate, 323.15 K	0.136
in ethyl acetate, 328.25 K	0.159
in n-heptane, 298.15 K	0.0035
in n-heptane, 303.45 K	0.0039
in n-heptane, 308.35 K	0.0044
in n-heptane, 313.05 K	0.0049
in n-heptane, 318.25 K	0.0056
in n-heptane, 323.35 K	0.0062
in n-heptane, 328.25 K	0.0069
in n-heptane, 333.15 K	0.0075
in toluene, 298.05 K	0.0572
in toluene, 300.95 K	0.065
in toluene, 303.35 K	0.0717
in toluene, 310.25 K	0.0904
in toluene, 314.45 K	0.106
in toluene, 318.65 K	0.123
in toluene, 323.55 K	0.15
in toluene, 327.95 K	0.173
in toluene, 333.15 K	0.209
in toluene, 338.25 K	0.246

O=[PH](O)c1ccccc1
Details	solubility (mole fraction)
in 2-ethoxyethanol, 288.15 K	0.124
in 2-ethoxyethanol, 293.85 K	0.136
in 2-ethoxyethanol, 298.25 K	0.148
in 2-ethoxyethanol, 303.45 K	0.165
in 2-ethoxyethanol, 313.15 K	0.205
in 2-ethoxyethanol, 318.25 K	0.227
in 2-ethoxyethanol, 323.65 K	0.239
in 2-ethoxyethanol, 328.25 K	0.259
in 2-ethoxyethanol, 333.45 K	0.283
in 2-ethoxyethanol, 338.35 K	0.308
in 2-ethoxyethanol, 343.25 K	0.344
in 2-ethoxyethanol, 348.25 K	0.372
in 2-ethoxyethanol, 353.25 K	0.397
in 2-ethoxyethanol, 358.55 K	0.434
in 2-ethoxyethanol, 363.15 K	0.459
in acetone, 293.35 K	0.0305
in acetone, 298.15 K	0.0448
in acetone, 303.55 K	0.0671
in acetone, 308.25 K	0.0879
in acetone, 313.45 K	0.124
in acetone, 318.25 K	0.186
in acetone, 323.35 K	0.256
in benzene, 299.15 K	0.054
in benzene, 303.65 K	0.0709
in benzene, 308.55 K	0.111
in benzene, 313.25 K	0.145
in benzene, 318.45 K	0.225
in benzene, 323.15 K	0.308
in benzene, 328.35 K	0.415
in benzene, 333.15 K	0.554
in chloroform, 293.15 K	0.134
in chloroform, 298.45 K	0.157
in chloroform, 303.25 K	0.186
in chloroform, 308.25 K	0.228
in chloroform, 313.15 K	0.269
in chloroform, 318.35 K	0.315
in chloroform, 323.25 K	0.357
in dichloromethane, 288.15 K	0.0292
in dichloromethane, 293.35 K	0.0386
in dichloromethane, 296.25 K	0.0458
in dichloromethane, 298.15 K	0.0528
in dichloromethane, 303.45 K	0.0709
in dichloromethane, 308.25 K	0.091
in ethanol, 283.25 K	0.0889
in ethanol, 288.65 K	0.112
in ethanol, 293.15 K	0.136
in ethanol, 298.35 K	0.168
in ethanol, 303.45 K	0.205
in ethanol, 308.25 K	0.245
in ethanol, 313.45 K	0.297
in ethanol, 318.55 K	0.356
in ethanol, 323.35 K	0.42
in ethyl acetate, 293.45 K	0.0144
in ethyl acetate, 298.15 K	0.0185
in ethyl acetate, 303.25 K	0.0275
in ethyl acetate, 313.45 K	0.0494
in ethyl acetate, 318.25 K	0.0661
in ethyl acetate, 328.35 K	0.107
in ethyl acetate, 333.25 K	0.136
in ethyl acetate, 338.55 K	0.174
in methanol, 293.55 K	0.173
in methanol, 298.15 K	0.215
in methanol, 303.75 K	0.28
in methanol, 308.35 K	0.344
in methanol, 313.45 K	0.429
in methanol, 318.25 K	0.526
in methanol, 323.65 K	0.655
in toluene, 293.15 K	0.0187
in toluene, 298.35 K	0.0282
in toluene, 303.45 K	0.0389
in toluene, 313.25 K	0.0652
in toluene, 318.15 K	0.0934
in toluene, 323.35 K	0.125
in toluene, 328.15 K	0.162
in toluene, 333.55 K	0.199
in toluene, 338.45 K	0.255
in toluene, 343.15 K	0.316
in toluene, 348.35 K	0.413
in water, 297.79 K	0.0095
in water, 300.25 K	0.0111
in water, 302.4 K	0.0129
in water, 305.22 K	0.0159
in water, 309.93 K	0.0218
in water, 312.84 K	0.0305
in water, 318.15 K	0.0433
in water, 323.35 K	0.0572
in water, 328.15 K	0.085
in water, 333.45 K	0.11
in water, 338.25 K	0.161
in water, 343.15 K	0.208

CP(=O)(O)c1ccccc1
Details	solubility (mole fraction)
in 2-ethoxyethanol, 298.15 K	0.252
in 2-ethoxyethanol, 303.15 K	0.289
in 2-ethoxyethanol, 313.25 K	0.348
in 2-ethoxyethanol, 318.15 K	0.397
in 2-ethoxyethanol, 323.35 K	0.441
in 2-ethoxyethanol, 328.25 K	0.472
in 2-ethoxyethanol, 333.15 K	0.519
in 2-ethoxyethanol, 338.45 K	0.587
in 2-ethoxyethanol, 343.35 K	0.639
in 2-ethoxyethanol, 348.35 K	0.697
in 2-ethoxyethanol, 353.15 K	0.751
in acetone, 293.15 K	0.0473
in acetone, 298.15 K	0.0609
in acetone, 303.25 K	0.0816
in acetone, 308.15 K	0.0995
in acetone, 313.35 K	0.127
in acetone, 318.15 K	0.165
in acetone, 323.25 K	0.204
in benzene, 293.25 K	0.0386
in benzene, 298.15 K	0.0541
in benzene, 303.15 K	0.0809
in benzene, 308.35 K	0.113
in benzene, 313.25 K	0.163
in benzene, 318.15 K	0.218
in benzene, 323.25 K	0.301
in benzene, 328.15 K	0.419
in benzene, 333.35 K	0.563
in chloroform, 293.15 K	0.112
in chloroform, 298.25 K	0.132
in chloroform, 303.15 K	0.156
in chloroform, 308.35 K	0.188
in chloroform, 313.15 K	0.214
in chloroform, 318.45 K	0.255
in chloroform, 323.15 K	0.288
in chloroform, 328.15 K	0.34
in dichloromethane, 288.55 K	0.0465
in dichloromethane, 293.65 K	0.0697
in dichloromethane, 296.15 K	0.0904
in dichloromethane, 298.35 K	0.104
in dichloromethane, 303.25 K	0.164
in dichloromethane, 308.35 K	0.235
in ethanol, 293.25 K	0.205
in ethanol, 298.15 K	0.266
in ethanol, 303.35 K	0.333
in ethanol, 308.25 K	0.39
in ethanol, 313.55 K	0.486
in ethanol, 318.45 K	0.614
in ethanol, 323.15 K	0.734
in ethanol, 328.25 K	0.872
in ethyl acetate, 288.35 K	0.0484
in ethyl acetate, 293.15 K	0.0621
in ethyl acetate, 298.25 K	0.075
in ethyl acetate, 303.45 K	0.0941
in ethyl acetate, 313.35 K	0.152
in ethyl acetate, 318.15 K	0.182
in ethyl acetate, 328.15 K	0.265
in ethyl acetate, 333.35 K	0.304
in ethyl acetate, 338.15 K	0.359
in ethyl acetate, 343.25 K	0.428
in methanol, 298.35 K	0.317
in methanol, 303.15 K	0.343
in methanol, 308.15 K	0.372
in methanol, 313.25 K	0.406
in methanol, 318.35 K	0.439
in methanol, 323.15 K	0.471
in methanol, 328.25 K	0.499
in toluene, 293.25 K	0.12
in toluene, 298.35 K	0.147
in toluene, 303.25 K	0.168
in toluene, 308.35 K	0.204
in toluene, 313.15 K	0.229
in toluene, 323.25 K	0.327
in toluene, 328.35 K	0.377
in toluene, 333.25 K	0.418
in toluene, 338.15 K	0.479
in toluene, 343.45 K	0.564
in water, 298.15 K	0.0154
in water, 303.35 K	0.0204
in water, 310.45 K	0.027
in water, 314.25 K	0.032
in water, 320.45 K	0.0414
in water, 324.15 K	0.0477
in water, 329.25 K	0.0579
in water, 333.65 K	0.0679
in water, 338.75 K	0.0865
in water, 343.45 K	0.0968
in water, 348.25 K	0.12
